Assay results reported in ChEMBL document CHEMBL2073760, “Efflux transport of a new quinolone antibacterial agent, HSR-903, across the blood-brain barrier” (J Pharmacol Exp Ther, 1999).

Biological target: ATP-dependent translocase ABCB1 (Mus musculus, UniProt P21447)
Experiment: TP_TRANSPORTER: increase in brain concentration in mdr1a(-/-) mouse
Type: functional, organism-based
Details: in vivo

Chain of ATP-dependent translocase ABCB1 (P21447 whole entry): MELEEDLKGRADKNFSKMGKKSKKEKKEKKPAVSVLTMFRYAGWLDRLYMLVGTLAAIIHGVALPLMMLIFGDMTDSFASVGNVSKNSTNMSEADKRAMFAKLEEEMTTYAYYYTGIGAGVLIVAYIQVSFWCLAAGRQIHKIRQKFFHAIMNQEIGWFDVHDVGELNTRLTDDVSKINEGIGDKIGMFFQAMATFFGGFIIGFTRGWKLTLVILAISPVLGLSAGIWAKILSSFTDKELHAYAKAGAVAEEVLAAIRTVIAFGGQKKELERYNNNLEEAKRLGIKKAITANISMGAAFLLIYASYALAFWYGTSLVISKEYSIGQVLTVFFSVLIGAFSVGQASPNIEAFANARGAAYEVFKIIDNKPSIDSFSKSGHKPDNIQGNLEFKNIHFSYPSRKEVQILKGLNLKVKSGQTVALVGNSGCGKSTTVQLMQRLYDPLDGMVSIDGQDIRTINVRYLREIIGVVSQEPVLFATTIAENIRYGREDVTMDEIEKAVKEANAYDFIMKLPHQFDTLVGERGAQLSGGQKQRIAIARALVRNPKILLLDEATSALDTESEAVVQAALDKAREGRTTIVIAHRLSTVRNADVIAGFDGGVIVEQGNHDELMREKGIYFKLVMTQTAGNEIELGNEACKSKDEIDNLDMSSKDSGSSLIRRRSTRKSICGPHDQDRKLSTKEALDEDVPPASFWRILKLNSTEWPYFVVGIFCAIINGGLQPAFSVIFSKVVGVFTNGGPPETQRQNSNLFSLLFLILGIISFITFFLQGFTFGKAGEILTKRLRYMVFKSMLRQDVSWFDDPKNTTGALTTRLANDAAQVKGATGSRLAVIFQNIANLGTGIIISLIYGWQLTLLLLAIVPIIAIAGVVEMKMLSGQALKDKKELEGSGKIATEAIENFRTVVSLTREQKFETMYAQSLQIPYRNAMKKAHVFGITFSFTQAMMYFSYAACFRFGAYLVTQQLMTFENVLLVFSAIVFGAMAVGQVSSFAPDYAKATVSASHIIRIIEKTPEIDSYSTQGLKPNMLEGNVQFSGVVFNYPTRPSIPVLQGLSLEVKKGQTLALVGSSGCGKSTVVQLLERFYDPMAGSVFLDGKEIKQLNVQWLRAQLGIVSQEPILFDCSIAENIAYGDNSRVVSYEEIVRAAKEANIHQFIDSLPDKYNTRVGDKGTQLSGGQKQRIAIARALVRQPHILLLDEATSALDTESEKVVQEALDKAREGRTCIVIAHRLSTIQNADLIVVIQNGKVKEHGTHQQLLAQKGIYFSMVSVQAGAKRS

Activity: substrate [+]
SMILES: CS(=O)(=O)O.Cc1c(N2C[C@@H](N)C3(CC3)C2)c(F)c(N)c2c(=O)c(C(=O)O)cn(C3CC3)c12
